Measurements reported in ChEMBL document CHEMBL2150974 (J Med Chem, 2012).

How the values were obtained:
[1] = target: T1, Mitogen-activated protein kinase 14 (Homo sapiens, UniProt Q16539); assay: Inhibition of p38alpha by immunosorbent based kinase assay
[2] = target: T1, Mitogen-activated protein kinase 14; assay: Inhibition of p38alpha-dependent TNFalpha production in human whole blood

T1 sequence (Q16539 whole entry): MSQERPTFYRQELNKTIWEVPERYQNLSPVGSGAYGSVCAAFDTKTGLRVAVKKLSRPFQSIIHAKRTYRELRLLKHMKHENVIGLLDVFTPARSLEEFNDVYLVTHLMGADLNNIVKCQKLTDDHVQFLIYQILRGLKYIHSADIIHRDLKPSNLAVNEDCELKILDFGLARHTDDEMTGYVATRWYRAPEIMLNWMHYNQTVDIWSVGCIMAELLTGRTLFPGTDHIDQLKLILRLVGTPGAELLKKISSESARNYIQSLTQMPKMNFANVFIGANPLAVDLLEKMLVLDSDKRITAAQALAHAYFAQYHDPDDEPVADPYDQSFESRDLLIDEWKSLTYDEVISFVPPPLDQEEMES

Row | SMILES | IC50 [1] [nM] | IC50 [2] [nM]
1 | COc1ccc2c(c1)C(=O)c1ccc(Nc3ccc(F)c(F)c3F)cc1CC2 | 3530 | 81000
2 | Nc1ccccc1Nc1ccc2c(c1)CCc1ccc(OC[C@@H](O)CO)cc1C2=O | 8 | 170
3 | COc1ccc2c(c1)C(=O)c1ccc(Nc3ccc(F)cc3F)cc1CC2 | 20 | 1200
4 | CC1(C)OC[C@@H](COc2ccc3c(c2)C(=O)c2ccc(Nc4ccccc4N)cc2CC3)O1 | 60 | 190
5 | O=C1c2ccc(Nc3ccccc3)cc2CCc2ccc(O)cc21 | 60 | 2200
6 | O=C1c2ccc(Oc3ccc(F)cc3F)cc2CCc2ccc(OC[C@@H](O)CO)cc21 | 40 | 6700
7 | COc1ccc2c(c1)CCc1cc(Nc3ccccc3N)ccc1C2=O | 70 | 12300
8 | O=c1c2ccc(Nc3ccc(F)cc3F)cc2ccc2ccc(O)cc12 | 300 | 26700
9 | COc1ccc2c(c1)C(=O)c1ccc(Nc3ccccc3F)cc1CC2 | 70 | 4900
10 | CC1(C)OC[C@@H](COc2ccc3c(c2)C(=O)c2ccc(Nc4ccc(F)cc4F)cc2CC3)O1 | 40 | 230
11 | COc1ccc2c(c1)C(=O)c1ccc(Nc3ccccc3OC)cc1CC2 | 380 | 7600
12 | Nc1ccccc1Nc1ccc2c(c1)CCc1cc(OC[C@H](O)CO)ccc1C2=O | 30 | 6000
13 | O=C1c2ccc(Nc3ccc(F)cc3F)cc2CCc2ccc(O)cc21 | 20 | 700
14 | COc1ccc2c(c1)C(=O)c1ccc(Nc3ccc(F)cc3N)cc1CC2 | 40 | 1900
15 | COc1ccc2c(c1)C(=O)c1ccc(Nc3ccccc3)cc1CC2 | 70 | 3200
16 | O=C1c2ccc(Nc3ccccc3Cl)cc2CCc2ccc(O)cc21 | 140 | 7500
17 | O=C1c2ccc(Nc3ccc(F)cc3F)cc2CCc2ccc(OCCN3CCOCC3)cc21 | 10 | 80
18 | COc1ccc2c(c1)C(=O)c1ccc(Nc3ccccc3N)cc1CC2 | 40 | 1500
19 | COc1ccc2c(c1)CCc1cc(Nc3ccc(F)cc3F)ccc1C2=O | 20 | 10200
20 | O=C1c2ccc(Nc3ccc(F)cc3F)cc2CCc2cc(OCCO)ccc21 | 20 | 4700
21 | O=C1c2ccc(Nc3ccc(F)cc3F)cc2CCc2cc(OCCN3CCOCC3)ccc21 | 20 | 40000
22 | COc1ccc2c(c1)C(=O)c1ccc(Oc3ccc(F)cc3F)cc1CC2 | 100 | 
23 | CC1(C)OC[C@H](COc2ccc3c(c2)CCc2cc(Nc4ccccc4N)ccc2C3=O)O1 | 80 | 93600
24 | O=C1c2ccc(Nc3ccc(F)cc3F)cc2CCc2ccc(OCC[C@@H](O)CO)cc21 | 10 | 80
25 | O=C1c2ccc(Nc3ccc(F)cc3Cl)cc2CCc2ccc(O)cc21 | 560 | 3800
26 | O=C1c2ccc(Nc3ccc(F)cc3F)cc2CCc2cc(OCCCO)ccc21 | 30 | 19500
27 | O=C1c2ccc(Oc3ccc(F)cc3F)cc2CCc2ccc(OCCN3CCOCC3)cc21 | 80 | 4500
